According to patent US6995170B1, “Semi-hydrochloride of 8-cyano-1-cyclopropyl-7-(1S,6S-2,8-diazabicyclo[4.3.0]nonan-8-yl)-6-fluoro-1, 4-dihydro-4-oxo-3-quinolinecarboxylic acid” (Bayer Aktiengesellschaft, priority 1998, dated 2006):
Counter-ions that a name gives are not always drawn.

Assay: Solubility in water (strength of solutions that can be prepared)

Row | strength of solutions in water that can be prepared (solubility in water) | SMILES
1 | approximately 2.8 % (w/w) | N#Cc1c(N2C[C@@H]3CCCN[C@@H]3C2)c(F)cc2c(=O)c(C(=O)O)cn(C3CC3)c12 [CCDC hydrochloride]
2 | about 0.02 % (w/w) | N#Cc1c(N2C[C@@H]3CCCN[C@@H]3C2)c(F)cc2c(=O)c(C(=O)O)cn(C3CC3)c12 [CCDC, 8-Cyano-1-cyclopropyl-7-(1S,6S-2,8-diazabicyclo[4.3.0]nonan-8-yl)-6-fluoro-1,4-dihydro-4-oxo-3-quinolinecarboxylic acid]
